Measured values from patent US20260042764A1, “COMPOSITIONS AND METHODS FOR INHIBITION OF KRAS” (TheRas, Inc., priority 2022, published 2026).
pIC50: −log10 of the molar value.

What was measured:
[1] = biological target: T1, Avi-KRAS G12V (1-169) GppNHp/RAF1 RBD-3xFLAG (52-151) (Homo sapiens, UniProt P01116, G12V); test: Raf1-KRAS G12V-GppNHP disruption HTRF assay (Biological Example 1); assay type: binding; conditions: KRAS G12V, GppNHp-loaded; Table 11
T1 construct: Avi-KRAS G12V (1-169)
Outline: (§1)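 Protein mix, 1 h RT, 700 rpm; reagent mix, 1 h RT, 700 rpm; HTRF read. Buffer Tris pH 7.5/NaCl/MgCl2/BSA/Tween, 10% DMSO. Output % activity, DMSO = 100%.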

[2] = biological target: T2, Avi-KRAS G12D (1-169) GppNHp/RAF1 RBD-3xFLAG (52-151) (Homo sapiens, UniProt P01116, G12D); test: Raf1-KRAS G12D-GppNHP disruption HTRF assay (Biological Example 1); assay type: binding; conditions: KRAS G12D, GppNHp-loaded; Table 11
T2 construct: Avi-KRAS G12D (1-169)
Outline: as §1

GP2d cells (KRAS G12D) = test: Cell-based pERK HTRF assay in GP2d cell (Biological Example 2); conditions: GP2d (KRAS G12D) cells, pERK HTRF
Outline: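 60 min compound, 0.25% DMSO, 9-pt half-log curve from 1 μM or 100 nM; DMEM/10% FBS.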

[3] = biological target: T3, Avi-KRAS G12R (1-169) GppNHp/RAF1 RBD-3xFLAG (52-151) (Homo sapiens, UniProt P01116, G12R); test: Raf1-KRAS G12R-GppNHP disruption HTRF assay (Biological Example 1); assay type: binding; conditions: KRAS G12R, GppNHp-loaded; Table 11
T3 construct: Avi-KRAS G12R (1-169)
Protocol: A protein:protein interaction (PPI) Homogeneous Time Resolved Fluorescence (HTRF) assay was used to determine the effectiveness of compounds of the present disclosure in disrupting KRAS protein and effector RAF1 binding.
The assay buffer included: 50 mM Tris pH 7.5, 100 mM NaCl, 5 mM MgCl2, 0.1% BSA, 0.01% Tween, and 10% DMSO. The bead buffer included: 50 mM Tris pH 7.5, and 0.01% Tween 20. Assay volume of 20 μL was used in a 384 well plate-low volume format.
The HTRF assay employed the following protocol:
Protein mix was prepared in assay buffer, and dispensed on plates, 10 μL per well, then incubated for 1 h at room temperature, with 700 rpm shaking, Reagents mix was prepared and dispensed on plates, 10 μL per well, then incubated for 1 h at room temperature, with 700 rpm shaking.
Data was reported as percentage of activity, with DMSO as 100%. Data was plotted and analyzed using Prism 8.

[4] = biological target: T4, Avi-KRAS WT (1-169) GppNHp/RAF1 RBD-3xFLAG (52-151) (Homo sapiens, UniProt P01116); test: Raf1-KRAS WT-GppNHP disruption HTRF assay (Biological Example 1); assay type: binding; conditions: KRAS WT, GppNHp-loaded; Table 11
T4 construct: Avi-KRAS WT (1-169)
Outline: as §1

T2 sequence (P01116 1-169 isoform P01116-2 G12D): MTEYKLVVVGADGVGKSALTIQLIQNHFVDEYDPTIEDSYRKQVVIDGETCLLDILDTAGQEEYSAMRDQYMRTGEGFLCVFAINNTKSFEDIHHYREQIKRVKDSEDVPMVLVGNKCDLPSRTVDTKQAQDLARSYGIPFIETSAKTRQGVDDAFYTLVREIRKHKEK
T3 sequence (P01116 1-169 isoform P01116-2 G12R): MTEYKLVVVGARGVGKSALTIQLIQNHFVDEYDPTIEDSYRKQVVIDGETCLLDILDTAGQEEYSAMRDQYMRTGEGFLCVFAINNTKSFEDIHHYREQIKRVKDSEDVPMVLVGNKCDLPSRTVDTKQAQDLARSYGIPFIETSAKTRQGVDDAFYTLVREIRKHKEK
T4 sequence (P01116 1-169 isoform P01116-2): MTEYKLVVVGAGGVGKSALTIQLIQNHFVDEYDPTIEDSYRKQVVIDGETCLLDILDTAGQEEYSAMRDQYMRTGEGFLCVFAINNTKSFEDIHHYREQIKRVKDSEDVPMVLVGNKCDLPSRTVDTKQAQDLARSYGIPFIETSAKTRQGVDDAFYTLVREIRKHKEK
T1 sequence (P01116 1-169 isoform P01116-2 G12V): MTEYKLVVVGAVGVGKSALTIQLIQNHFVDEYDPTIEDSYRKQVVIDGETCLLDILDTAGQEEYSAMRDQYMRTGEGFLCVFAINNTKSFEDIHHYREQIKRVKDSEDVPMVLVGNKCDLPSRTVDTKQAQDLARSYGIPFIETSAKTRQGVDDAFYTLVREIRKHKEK

Structure (SMILES) | pIC50 [1] | pIC50 [2] | pIC50 (GP2d cells (KRAS G12D); GP2d) | pIC50 [3] | pIC50 [4] | pIC50 (GP2d cells (KRAS G12D))
C[C@@H]1CN(c2nc(OC[C@@]34CCCN3C[C@H](F)C4)nc3c(F)c(-c4ccc(F)c5sc(N)c(C#N)c45)c(C(F)(F)F)cc23)C[C@@H](C)O1 [Compound 144] | 5.00 to 6.00 | 6.00 to 7.00 | > 7.00 | 6.00 to 7.00 | 6.00 to 7.00 | –
CN(c1nc(OC[C@@]23CCCN2C[C@H](F)C3)nc2c(F)c(-c3ccc(F)c4sc(N)c(C#N)c34)c(C(F)(F)F)cc12)[C@@H]1C[C@H](O)[C@H]1CO [Compound 181] | 6.00 to 7.00 | > 7.00 | > 7.00 | 6.00 to 7.00 | > 7.00 | –
CC(=O)N1CCC(N(C)c2nc(OC[C@@]34CCCN3C[C@H](F)C4)nc3c(F)c(-c4ccc(F)c5sc(N)c(C#N)c45)c(C(F)(F)F)cc23)[C@H]1C (stereo partly drawn) [Compound 114] | 6.00 to 7.00 | 6.00 to 7.00 | > 7.00 | 6.00 to 7.00 | 6.00 to 7.00 | –
N#Cc1c(N)sc2c(F)ccc(-c3c(C(F)(F)F)cc4c(N5CCC6(CC5)CC(O)C6)nc(OC[C@@]56CCCN5C[C@H](F)C6)nc4c3F)c12 [Compound 45] | 6.00 to 7.00 | 6.00 to 7.00 | 6.00 to 7.00 | 6.00 to 7.00 | 6.00 to 7.00 | –
CN(c1nc(OC[C@@]23CCCN2C[C@H](F)C3)nc2c(F)c(-c3ccc(F)c4sc(N)c(C#N)c34)c(C(F)(F)F)cc12)[C@@H]1CCC[C@H]1CO [Compound 87] | < 5.00 | < 5.00 | < 6.00 | < 5.00 | < 5.00 | –
CN(c1nc(OC[C@@]23CCCN2C[C@H](F)C3)nc2c(F)c(-c3ccc(F)c4sc(N)c(C#N)c34)c(C(F)(F)F)cc12)[C@H]1C[C@@H](O)C1 [Compound 18, 2-amino-7-fluoro-4-(8-fluoro-2-(((2R,7aS)-2-fluorotetrahydro-1H-pyrrolizin-7a(5H)-yl)methoxy)-4-(((1s,3R)-3-hydroxycyclobutyl)(methyl)amino)-6-(trifluoromethyl)quinazolin-7-yl)benzo[b]thiophene-3-carbonitrile] | 6.00 to 7.00 | > 7.00 | > 7.00 | 6.00 to 7.00 | > 7.00 | –
CC(=O)N1CCN(c2nc(OC[C@@]34CCCN3C[C@H](F)C4)nc3c(F)c(-c4ccc(F)c5sc(N)c(C#N)c45)c(C(F)(F)F)cc23)CC1 [Compound 100] | 5.00 to 6.00 | 6.00 to 7.00 | > 7.00 | 6.00 to 7.00 | 6.00 to 7.00 | –
C[C@H](O)CN(C)c1nc(OC[C@@]23CCCN2C[C@H](F)C3)nc2c(F)c(-c3ccc(F)c4sc(N)c(C#N)c34)c(C(F)(F)F)cc12 [Compound 72] | 6.00 to 7.00 | > 7.00 | > 7.00 | 6.00 to 7.00 | 6.00 to 7.00 | –
CN(c1nc(OC[C@@]23CCCN2C[C@H](F)C3)nc2c(F)c(-c3ccc(F)c4sc(N)c(C#N)c34)c(C(F)(F)F)cc12)[C@@H]1CCN(S(C)(=O)=O)C1 [Compound 95] | 6.00 to 7.00 | 6.00 to 7.00 | – | 6.00 to 7.00 | 6.00 to 7.00 | > 7.00
N#Cc1c(N)sc2c(F)ccc(-c3c(C(F)(F)F)cc4c(N5CCC(O)CC5)nc(OC[C@@]56CCCN5C[C@H](F)C6)nc4c3F)c12 [Compound 127] | 6.00 to 7.00 | 6.00 to 7.00 | > 7.00 | 6.00 to 7.00 | 6.00 to 7.00 | –
C[C@H](CO)N(C)c1nc(OC[C@@]23CCCN2C[C@H](F)C3)nc2c(F)c(-c3ccc(F)c4sc(N)c(C#N)c34)c(C(F)(F)F)cc12 [Compound 76] | 6.00 to 7.00 | > 7.00 | > 7.00 | 6.00 to 7.00 | 6.00 to 7.00 | –
CCN(CCO)c1nc(OC[C@@H]2CC3(CC3)CN2C)nc2c(F)c(-c3ccc(F)c4sc(N)c(C#N)c34)c(C(F)(F)F)cc12 [Compound 180] | 6.00 to 7.00 | 6.00 to 7.00 | > 7.00 | 6.00 to 7.00 | 6.00 to 7.00 | –
CN(c1nc(OC[C@@]23CCCN2C[C@H](F)C3)nc2c(F)c(-c3ccc(F)c4sc(N)c(C#N)c34)c(C(F)(F)F)cc12)C1CCC1 [Compound 22] | 6.00 to 7.00 | 6.00 to 7.00 | > 7.00 | 6.00 to 7.00 | 6.00 to 7.00 | –

Other lines, results leading:

pIC50 [1] | pIC50 [2] | pIC50 (GP2d cells (KRAS G12D); GP2d) | pIC50 [3] | pIC50 [4] | pIC50 (GP2d cells (KRAS G12D)) | Structure (SMILES)
6.00 to 7.00 | 6.00 to 7.00 | > 7.00 | 6.00 to 7.00 | 6.00 to 7.00 | – | N#Cc1c(N)sc2c(F)ccc(-c3c(C(F)(F)F)cc4c(N5CC[C@H](CO)C5)nc(OC[C@@]56CCCN5C[C@H](F)C6)nc4c3F)c12 [Compound 123]
5.00 to 6.00 | 6.00 to 7.00 | > 7.00 | 5.00 to 6.00 | 5.00 to 6.00 | – | C[C@@H]1CN(c2nc(OC[C@@]34CCCN3C[C@H](F)C4)nc3c(F)c(-c4ccc(F)c5sc(N)c(C#N)c45)c(C(F)(F)F)cc23)[C@@H](C)CO1 [Compound 140]
6.00 to 7.00 | > 7.00 | > 7.00 | 6.00 to 7.00 | 6.00 to 7.00 | – | C[C@H]1COCCN1c1nc(OC[C@@]23CCCN2C[C@H](F)C3)nc2c(F)c(-c3ccc(F)c4sc(N)c(C#N)c34)c(C(F)(F)F)cc12 [Compound 135]
6.00 to 7.00 | 6.00 to 7.00 | > 7.00 | 6.00 to 7.00 | 6.00 to 7.00 | – | CCN(c1nc(OC[C@@]23CCCN2C[C@H](F)C3)nc2c(F)c(-c3ccc(F)c4sc(N)c(C#N)c34)c(C(F)(F)F)cc12)[C@@H]1CCN(C(C)=O)[C@@H]1C [Compound 189]
5.00 to 6.00 | 5.00 to 6.00 | > 7.00 | 5.00 to 6.00 | 5.00 to 6.00 | – | CS(=O)(=O)N1CCN(c2nc(OC[C@@]34CCCN3C[C@H](F)C4)nc3c(F)c(-c4ccc(F)c5sc(N)c(C#N)c45)c(C(F)(F)F)cc23)CC1 [Compound 96]
6.00 to 7.00 | 6.00 to 7.00 | 6.00 to 7.00 | 6.00 to 7.00 | 6.00 to 7.00 | – | CN(c1nc(OC[C@@]23CCCN2C[C@H](F)C3)nc2c(C#N)c(-c3ccc(F)c4sc(N)c(C#N)c34)c(Cl)cc12)[C@H]1C[C@@H](O)C1 [Compound 30, 7-(2-amino-3-cyano-7-fluorobenzo[b]thiophen-4-yl)-6-chloro-2-(((2R,7aS)-2-fluorotetrahydro-1H-pyrrolizin-7a(5H)-yl)methoxy)-4-(((1s,3R)-3-hydroxycyclobutyl)(methyl)amino)quinazoline-8-carbonitrile]
6.00 to 7.00 | 6.00 to 7.00 | > 7.00 | 6.00 to 7.00 | 6.00 to 7.00 | – | N#Cc1c(N)sc2c(F)ccc(-c3c(C(F)(F)F)cc4c(N5CC6CCC5CO6)nc(OC[C@@]56CCCN5C[C@H](F)C6)nc4c3F)c12 (stereo partly drawn) [Compound 146]
5.00 to 6.00 | 6.00 to 7.00 | 6.00 to 7.00 | 6.00 to 7.00 | 6.00 to 7.00 | – | CN(c1nc(OC[C@@]23CCCN2C[C@H](F)C3)nc2c(F)c(-c3ccc(F)c4sc(N)c(C#N)c34)c(C#N)cc12)[C@H]1C[C@@H](O)C1 [Compound 32, 7-(2-amino-3-cyano-7-fluoro-benzothiophen-4-yl)-8-fluoro-2-[[(2R,8S)-2-fluoro-1,2,3,5,6,7-hexahydropyrrolizin-8-yl]methoxy]-4-[(3-hydroxycyclobutyl)-methyl-amino]quinazoline-6-carbonitrile]
6.00 to 7.00 | > 7.00 | > 7.00 | > 7.00 | > 7.00 | – | N#Cc1c(N)sc2c(F)ccc(-c3c(C(F)(F)F)cc4c(N(CCO)CCO)nc(OC[C@@]56CCCN5C[C@H](F)C6)nc4c3F)c12 [Compound 174]
5.00 to 6.00 | 6.00 to 7.00 | 6.00 to 7.00 | 5.00 to 6.00 | 5.00 to 6.00 | – | CN(CCO)c1nc(OC[C@@]23CCCN2C[C@H](F)C3)nc2c(F)c(-c3ccc(F)c4sc(N)nc34)c(C(F)(F)F)cc12 [Compound 82]
5.00 to 6.00 | 5.00 to 6.00 | 6.00 to 7.00 | 5.00 to 6.00 | 5.00 to 6.00 | – | CN(c1nc(OC[C@@]23CCCN2C[C@H](F)C3)nc2cc(-c3ccc(F)c4sc(N)c(C#N)c34)c(C#N)cc12)[C@H]1C[C@@H](O)C1 [Compound 29]
